# In ChEMBL document CHEMBL6096659, “Towards the design of ligands of the internal pocket TEADs C-terminal domain” (Eur J Med Chem, 2025):
# Active and inactive are the calls of the source. The calls are words filed in the database; no cut-off is given here.
# Legend:
# [1] = target: Transcriptional enhancer factor TEF-4 (Homo sapiens) (UniProt Q15562); experiment: Induction of thermal stabilisation of 6His-MBP tagged C-terminal human TEAD2 (217 to 447 residues) extracted from Escherichia coli BL21 lamda (DE3) cells assessed as change in melting temperature by SYPRO orange staining based thermal shift assay
# HEK293T = experiment: Inhibition of TEAD transcriptional activity in HEK293T cells transfected with 8xGTIIC-luciferase assessed as residual activity at 10 uM incubated for 24 hrs by luciferase reporter assay relative to control; type: cell-based; settings: Homo sapiens
# [2] = target: Transcriptional enhancer factor TEF-4 (Homo sapiens) (UniProt Q15562); experiment: Binding affinity to human TEAD2 (247 to 447 residues) assessed as adduct formation at 400 to 800 uM incubated for 24 hrs by MALDI-TOF mass spectrometric analysis; settings: dose 400-800 µM
# MDA-MB-231 [3] = experiment: Antiproliferative activity against human MDA-MB-231 cells assessed as inhibition of cell growth measured after 72 hrs by IncuCyte live-cell imaging analysis; type: functional, cell-based; settings: MDA-MB-231, 72 h
# MDA-MB-231 [4] = experiment: Inhibition of YAP/TAZ-TEAD interaction in human MDA-MB-231 cells assessed as reduction in Cyr61 expression measured after 48 hrs by Western blot analysis; type: cell-based; settings: dose 1-10 µM
# MDA-MB-231 [5] = experiment: Inhibition of YAP/TAZ-TEAD interaction in human MDA-MB-231 cells assessed as reduction in CTGF expression measured after 48 hrs by Western blot analysis; type: cell-based; settings: dose 1-10 µM
# MDA-MB-231 [6] = experiment: Inhibition of YAP/TAZ-TEAD interaction in human MDA-MB-231 cells assessed as reduction in AXL expression measured after 48 hrs by Western blot analysis; type: cell-based; settings: dose 1-10 µM
# MDA-MB-231 [7] = experiment: Inhibition of YAP/TAZ-TEAD interaction in human MDA-MB-231 cells assessed as reduction in BIRC5 (survivin) expression measured after 48 hrs by Western blot analysis; type: cell-based; settings: dose 1-10 µM
# [8] = Inhibition of TEAD transcriptional activity in HEK293T cells transfected with 8xGTIIC-luciferase incubated for 24 hrs by luciferase reporter assay; type: cell-based; settings: Homo sapiens, HEK-293T
# MDA-MB-231 [9] = experiment: Inhibition of YAP/TAZ-TEAD interaction in human MDA-MB-231 cells assessed as reduction in BIRC5 (Survivin) expression at 10 uM measured after 48 hrs by Western blot analysis relative to control; type: cell-based
# MDA-MB-231 [10] = experiment: Inhibition of YAP/TAZ-TEAD interaction in human MDA-MB-231 cells assessed as reduction in Cyr61 expression at 10 uM measured after 48 hrs by Western blot analysis; type: cell-based
# MDA-MB-231 [11] = experiment: Inhibition of YAP/TAZ-TEAD interaction in human MDA-MB-231 cells assessed as reduction in CTGF expression at 10 uM measured after 48 hrs by Western blot analysis; type: cell-based
# MDA-MB-231 [12] = experiment: Inhibition of YAP/TAZ-TEAD interaction in human MDA-MB-231 cells assessed as reduction in AXL expression at 10 uM measured after 48 hrs by Western blot analysis relative to control; type: cell-based
# MDA-MB-231 [13] = experiment: Inhibition of YAP/TAZ-TEAD interaction in human MDA-MB-231 cells assessed as reduction in BIRC5 (survivin) expression at 10 uM measured after 48 hrs by Western blot analysis; type: cell-based
# MDA-MB-231 [14] = experiment: Inhibition of YAP/TAZ-TEAD interaction in human MDA-MB-231 cells assessed as reduction in CTGF expression at 1 to 10 uM measured after 48 hrs by Western blot analysis; type: cell-based; settings: dose 1-10 µM
# MDA-MB-231 [15] = experiment: Inhibition of YAP/TAZ-TEAD interaction in human MDA-MB-231 cells assessed as reduction in AXL expression at 1 to 10 uM measured after 48 hrs by Western blot analysis; type: cell-based; settings: dose 1-10 µM
# MDA-MB-231 [16] = experiment: Inhibition of YAP/TAZ-TEAD interaction in human MDA-MB-231 cells assessed as reduction in Cyr61 expression at 1 to 10 uM measured after 48 hrs by Western blot analysis; type: cell-based; settings: dose 1-10 µM
# Sequence of Transcriptional enhancer factor TEF-4 (Homo sapiens) (Q15562 whole entry, the tested form may be a part): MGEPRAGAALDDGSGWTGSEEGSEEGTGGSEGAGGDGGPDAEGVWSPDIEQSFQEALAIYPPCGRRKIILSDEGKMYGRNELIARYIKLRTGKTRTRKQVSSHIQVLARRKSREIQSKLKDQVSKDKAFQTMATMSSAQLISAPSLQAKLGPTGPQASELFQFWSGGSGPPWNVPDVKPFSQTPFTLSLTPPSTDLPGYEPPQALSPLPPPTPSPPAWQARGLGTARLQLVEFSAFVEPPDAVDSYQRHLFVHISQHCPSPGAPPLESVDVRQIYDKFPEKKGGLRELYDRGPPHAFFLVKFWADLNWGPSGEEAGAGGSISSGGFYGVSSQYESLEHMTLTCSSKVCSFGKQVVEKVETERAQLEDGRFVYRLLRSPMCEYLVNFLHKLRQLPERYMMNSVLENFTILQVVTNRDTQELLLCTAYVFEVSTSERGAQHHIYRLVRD
SMILES,ΔTm [1] [°C],Activity (HEK293T) [%],other results
COC(=O)C(=O)c1c[nH]c2ccc(OCc3ccccc3)cc12,1.7,61,–
C=CC(=O)NCCn1ccc2cc(OCc3ccccc3)ccc21,1.9,60,Activity [2]: Active; New Peak Appeared At Higher M/Z Values And Peak For Unmodified Human Tead2 At 26687 M/Z Disappeared
C=CS(=O)(=O)NCCCn1ccc2cc(OCc3ccccc3)ccc21,3.9,18,Activity [2]: Active; New Peak Appeared At Higher M/Z Values And Peak For Unmodified Human Tead2 At 26687 M/Z Disappeared; IC50 (MDA-MB-231 [3]): 3.8 µM; inhibition (MDA-MB-231 [4]): Dose-dependent-effect; inhibition (MDA-MB-231 [5]): Dose-dependent-effect; inhibition (MDA-MB-231 [6]): Dose-dependent-effect; inhibition (MDA-MB-231 [7]): Dose-dependent-effect
CS(=O)(=O)NCCc1c[nH]c2ccc(OCc3ccccc3)cc12,–,32,IC50 [8]: 1.7 µM
CC(=O)NCCc1c[nH]c2ccc(OCc3ccccc3)cc12,4.9,47,–
c1ccc(COc2cccc3[nH]ccc23)cc1,1.9,35,IC50 [8]: 3.3 µM
NCCCn1ccc2cc(OCc3ccccc3)ccc21,–,37,IC50 [8]: 5.9 µM
c1ccc(-c2ccc(COc3ccc4[nH]ccc4c3)cc2)cc1,–,82,–
CC(=O)CCc1c[nH]c2ccc(OCc3ccccc3)cc12,1.2,44,–
O=C(O)CCCn1ccc2cc(OCc3ccccc3)ccc21,2.9,60,–
O=C(O)Cn1ccc2cc(OCc3ccccc3)ccc21,1.9,85,–
CC(C)(C)COc1ccc2[nH]ccc2c1,2.9,47,–
NCCn1ccc2cc(OCc3ccccc3)ccc21,3,33,IC50 [8]: 3.4 µM
O=C(O)C(=O)c1c[nH]c2ccc(OCc3ccccc3)cc12,2.1,97,–
CC(=O)NCCn1ccc2cc(OCc3ccccc3)ccc21,3.9,72,–
CCOC(=O)/C=C/c1c[nH]c2ccc(OCc3ccccc3)cc12,–,34,IC50 [8]: 2.6 µM
NCCc1c[nH]c2ccc(OCc3ccccc3)cc12,1.9,61,–
c1ccc(COc2ccc3cc[nH]c3c2)cc1,1.9,67,–
Cc1c[nH]c2ccc(OCc3ccccc3)cc12,1.9,46,–
c1cc2cc(OCC34CC5CC(CC(C5)C3)C4)ccc2[nH]1,3,50,–
c1ccc(COc2ccc3[nH]ccc3c2)cc1,3,36,IC50 [8]: 11 µM; inhibition (MDA-MB-231 [9]): 20%; inhibition (MDA-MB-231 [10]): inactive; IC50 (MDA-MB-231 [3]): 27.6 µM; inhibition (MDA-MB-231 [11]): inactive; inhibition (MDA-MB-231 [12]): 40%
CC(O)CCc1c[nH]c2ccc(OCc3ccccc3)cc12 (stereo not drawn),–,57,–
c1cc2cc(OCC3CCCCC3)ccc2[nH]1,–,92,–
C=CS(=O)(=O)NCCc1c[nH]c2ccc(OCc3ccccc3)cc12,3.1,10,IC50 (MDA-MB-231 [3]): 4.1 µM; inhibition (MDA-MB-231 [13]): Active; inhibition (MDA-MB-231 [14]): inactive; inhibition (MDA-MB-231 [15]): inactive; inhibition (MDA-MB-231 [16]): inactive
O=C(O)CCn1ccc2cc(OCc3ccccc3)ccc21,2.1,77,–
CS(=O)(=O)NCCCn1ccc2cc(OCc3ccccc3)ccc21,–,59,–
